≈ marks a conversion by molar mass, not a printed value. Where a SMILES comes first, the peptide text is derived from it. [ ]: non-standard residue; d: D form.

Experimental findings from US20190375791A1, “NEW D-CONFIGURED CATESLYTIN PEPTIDE” (priority 2016, published 2019) are described below.

For series [1], the system named is Staphylococcus aureus (MSSA). Kind of series: microbe, parasite or virus in culture. How it is done: (§1) E. coli K-12 mutant E2146 was kindly provided by the Institut Pasteur of Paris. […] It is resistant to specific antibiotics, i.e. ampicillin, chloramphenicol, and kanamycin.
(§2) MIC was determined by broth microdilution. […] Experiments were performed with biological replicates.
(§3) To this aim, they determined the Fractional Inhibitory Concentration Index (FICI) of the combination between D-CTL and each antibiotic of reference.

Another series concerns Escherichia coli. Briefly: microbe, parasite or virus in culture. The conditions noted are these: 24 h. How it is done: as §1, §2
In series [2] the test system is Escherichia coli Amp^R Kan^RChlo^R. The conditions noted are these: Escherichia coli Amp^R Kan^R Chlo^R (multi-resistant), 24 hours incubation. The protocol:
as §1, §2, §3

Another series relates to Fusobacterium nucleatum. The conditions noted are these: 24 h. The protocol:
as §1, §2, §3

The next series deals with Prevotella intermedia. The conditions noted are these: 24 h. How it is done: as §1, §2, §3
Another series deals with Parvimonas micra. Briefly: microbe, parasite or virus in culture. The protocol: as §1, §2, §3
The test system of series [3] is Staphylococcus aureus (MRSA). Kind of series: microbe, parasite or virus in culture. The conditions noted are these: 24 h. How it is done:
as §1, §2, §3

Series [4] can be described thus: Peptide stability assay towards bacterial virulence factors (supernatants) using HPLC. It counts as in vitro ADME. The conditions noted are these: 24 hours. How it is done:
FIG. 5: Stability of D-CTL and L-CTL towards the virulence factors of different bacterial strains. […] Chromatograms 1 correspond to supernantant only, chromatograms 2 correspond to supernatant and peptide and chromatograms 3 corresponds to peptide only.
Bacteria were then centrifuged for lmin at 13000rpm and the supernatant filtered using a 0,2 μm Millex filter (Merck-Millipore) to remove any residual bacteria.

For series [5] the following is noted: 19 μg peptide in 100 μL supernatant, 37° C., 24 h, HPLC. An excerpt: Absence of growth was interpreted as lack of viable microorganism.
Absorbance was monitored at 214 nm and the solvent system consisted of 0.1% (v/v) TFA in water (solvent A) and 0.09% (v/v) TFA in 70% (v/v) acetonitrile-water (solvent B).

The conditions of series [6]: saliva from ten healthy volunteers, 24 hours.
Description: Saliva from ten healthy volunteers was incubated with D-CTL or L-CTL for 24 hours and peptide stability was then assessed by LC-SRM. The analyses were performed on an Agilent 1100 Series HPLC system hyphenated to a QQQ-6490 triple quadrupole (Agilent Technologies). A total of 48 transitions (6 precursors) were monitored in an unscheduled mode within a total cycle time of 3 000 ms.
All samples were centrifuged at 14 000 g during 5 min at +4° C. and then diluted 3 times in water with 0.1% (v/v) HCOOH. For each sample, 2 μL were injected on the LC-SRM system. All separations were carried out on Agilent 1100 Series HPLC system (Agilent Technologies). For each analysis, the sample was loaded into a trapping column ZORBAX 300SB-C18 MicroBore Guard 5 gm, 1.0×17 mm (Agilent Technologies) at 50 μL/min with aqueous solution containing 0.1% (v/v) HCOOH and 2% CH3CN. After 3 min trapping, the column was put on-line with a ZORBAX 300SB-C18 3.5 μm, 0.3×150 mm column (Agilent Technologies). […]
For LC-SRM assay, each peptide was targeted with either an oxidized or non-oxidized state [[sequence]]. […] For each of the 6 precursors, 8 transitions were monitored (48 transitions in total) on a QQQ-6490 triple quadrupole mass spectrometer (Agilent technologies) in unscheduled mode and within a cycle time of 3 000 s. […] The reference value was calculated using the equation given by the supplier. […]
In a further series the test system is E. coli (ATCC 25922). Briefly: Resistance acquisition assay. It counts as cell-based, Escherichia coli. The conditions noted are these: E. coli wild type cultured at sub-MIC (½ MIC) concentrations, day 28. The protocol: FIG. 1: Resistance acquisition assay of E. coli in the presence of D-CTL compared to ampicillin and cefotaxim. Bacteria were cultured in the presence of ½ MIC of the antibacterial agent for […]. The fold change in MIC was evaluated at the indicated days. The graph is representative of two experiments done independently.
E. coli (ATCC® 25922™ ) strain was sequentially passaged every day in the presence of the different antibacterial compounds: D-CTL, ampicillin or cefotaxime at ½ MIC during 28 days. The changes in the MICs were determined as previously described by broth microdilution at the indicated times.

Another series relates to Enterococcus faecalis. It counts as cell-based. Particulars: for bacterial growth inhibition of E. faecalis: peptides at 200 μg/mL. The protocol:
Enterococcus faecalis (CCM 2541) was obtained from the Czechoslovac Collection of Microorganisms (Czech Republic) Bacteria were cultured in Anaerobe Basal Broth (Oxoid, France) at 37° C. in anaerobic conditions. Candida albicans (ATCC© 10231™) was cultured in Sabouraud medium (BD, France) supplemented with tetracycline (10 μg/mL) and cefotaxime (10 μg/mL).
An overnight culture of each pathogen was diluted (OD600 nm=0.001) and incubated at 37° C. in 96-plates in the presence of different concentrations of antimicrobial agents. When testing Ca(OH)2, the pH of the solution was measured with by pH meter. (CyberScan pH 510©, Eutech, France). After 24 h incubation, the OD620 nm was evaluated with a spectrophotometer (Multikan EX, ThermoScientific, France). Each assay was done at least in triplicate. For each set of assay, the standard deviation was determined.

The conditions of series [7]: Ca(OH)2 0,85 g/L pH 8,5, ½ MIC of D-CTL, HPLC. How it is done: The samples were then analyzed by HPLC. Chromatogram 1 corresponds to D-CTL, chromatogram 2 corresponds to D-CTL diluted in a saturated solution of Ca(OH)2 (pH 9). Absorbance is expressed in Unity of Milli-Absorbance (UmA) depending on the time in minutes (min).
Regarding the stability of D-CTL in Ca(OH)2, the peptide was incubated in a buffered Ca(OH)2 solution at 37° C. for 24 h. The pH of the Ca(OH)2 solution was buffered at the same pH than the one determined during the broth dilution assays. As negative controls, D-CTL in water was also incubated at 37° C. for 24 h.
(§4) The samples were analyzed by HPLC (Dionex, Ultimate 3000, CA USA) using a Nucleosil reverse-phase 300-5C18-colum (4,6×250 mm; particle size: 5 μm; porosity, 300 Å) (Macherey Nagel, France). Two solvents used were: 0.1% (v/v) TFA in water (Solvent A) and 0.09% (v/v) TFA in 70% (v/v) acetonitrile-water (solvent B). Absorbance was measured at 214 nm (A214 nm). The flow rate for elution was 0,7 mL/min with a gradient of solvent B as indicated on the chromatograms.

For series [8] the following is noted: 300 μg/mL, 37° C., 24 h, HPLC. How it is done:
as §4

The subject of another series is Candida albicans. Kind of series: microbe, parasite or virus in culture. Format: cell-based. The protocol: Candida albicans (ATCC© 10231™ distributed by LGC Standards, Molsheim, France) was cultured in Sabouraud medium (Sigma-Aldrich) supplemented with tetracycline (10 μg/mL) and cefotaxime (10 μg/mL) at 37° C. for 24 h. Candida albicans (OD600 nm=0,001) were plated in 96-well plates and treated either with different concentrations of the peptides of interest, and/or with different concentrations of voriconazole (VCZ) (Sigma-Aldrich). As a positive control, cells were treated with 10 μg/mL VCZ. After 24 h incubation, yeast growth was assessed by optical density OD600 nm using a spectrophotometer (Multiscan EX, Shanghai, China).
The MFC is defined as the lowest concentration of peptide able to inhibit 100% of yeasts, and determined using a modified Gompertz model as described in Lambert et Pearson (Lambert and Pearson 2000, J Appl Microbiol, 88(5): 784-790).
The efficiency of the combination D-CTL/VCZ was determined by the calculation of the Fractional inhibitory concentration (FIC) index according to the following formula: FICI=FICD-CTL+FICVCZ. According to EUCAST (European Committee on Antimicrobial Suscpetibility Testing), the effect of the combination is synergistic if FICI≤0,5, additive if 0,5<FICI≤1, indifferent if 1<FICI<2, antagonistic if FICI≥2^40-41. • Results D-CTL Inhibits the Groth of C. albicans

Take `COc1cccc(OC)c1C(=O)N[C@@H]1C(=O)N2[C@@H]1SC(C)(C)[C@@H]2C(=O)O` [Methicillin]: the MIC in series [1] (Staphylococcus aureus, MSSA, 24 h) amounted to 1.2 µg/mL.

With `CSCC[C@H](NC(=O)[C@H](CO)NC(=O)[C@@H](N)CCCNC(=N)N)C(=O)N[C@@H](CCCNC(=N)N)C(=O)N[C@@H](CC(C)C)C(=O)N[C@@H](CO)C(=O)N[C@@H](Cc1ccccc1)C(=O)N[C@@H](CCCNC(=N)N)C(=O)N[C@@H](C)C(=O)N[C@@H](CCCNC(=N)N)C(=O)NCC(=O)N[C@@H](Cc1ccc(O)cc1)C(=O)NCC(=O)N[C@@H](Cc1ccccc1)C(=O)N[C@@H](CCCNC(=N)N)C(=O)O` [L-CTL] (H-RSMRLSFRARGYGFR-OH; N-terminus and C-terminus assumed), the MIC against Escherichia coli turned out to be 75 µg/mL (≈ 40.3 µM); in series [2], 150 µg/mL; in the series on Fusobacterium nucleatum it was 125.3 µg/mL; with Prevotella intermedia, 148.6 µg/mL; in the series with Parvimonas micra (24 hours incubation), 120 µg/mL; in series [3], 37 µg/mL. Also, the MIC in series [1] (24 h) stood at 40 µg/mL. Further, the “degradation by virulence factors” value in series [4] (supernatant of E. coli multiresistant strain) and in series [4] (supernatant of E. coli wild type strain) was “degraded” each time. Also, in series [5], the “stability in the supernatant of Candida albicans” value is on record as “degraded”. For the same compound, the stability in saliva result in series [6] was “unlike L-CTL, D-CTL was stable”.

Take `CC1(C)S[C@@H]2[C@H](NC(=O)[C@H](N)c3ccccc3)C(=O)N2[C@H]1C(=O)O` [Ampicillin]: the “change in MIC over the culture” value in the series with E. coli (ATCC 25922) was found to be 3 times the MIC.

Compound `NC[C@H]1O[C@H](O[C@H]2[C@H](O)[C@@H](O[C@H]3O[C@H](CO)[C@@H](O)[C@H](N)[C@H]3O)[C@H](N)C[C@@H]2N)[C@H](O)[C@@H](O)[C@@H]1O` [Kanamycin] had an MIC in the series on Escherichia coli (Escherichia coli) of 21.6 µg/mL (≈ 44.6 µM).

On to `CO/N=C(\C(=O)N[C@@H]1C(=O)N2C(C(=O)O)=C(COC(C)=O)CS[C@H]12)c1csc(N)n1` [Cefotaxim], for which the MIC in [2] stood at 0.09 µg/mL. The “change in MIC over the culture” value with E. coli (ATCC 25922) is 3 times the MIC.

For the compound `CC1(C)S[C@@H]2[C@H](NC(=O)[C@H](N)c3ccc(O)cc3)C(=O)N2[C@H]1C(=O)O` [Amoxicillin], in the series on Parvimonas micra (24 h), the MIC was found to be 0.45 µg/mL.

For “RILSILRHQNLLKELQDLAL [CHR, bovine chromofungin bCgA47-70]”, in the series with Enterococcus faecalis, the “bacterial growth inhibition of E. faecalis” value is given as “no antimicrobial activity”.

Turning to `CSCC[C@@H](NC(=O)[C@@H](CO)NC(=O)[C@H](N)CCCNC(=N)N)C(=O)N[C@H](CCCNC(=N)N)C(=O)N[C@H](CC(C)C)C(=O)N[C@H](CO)C(=O)N[C@H](Cc1ccccc1)C(=O)N[C@H](CCCNC(=N)N)C(=O)N[C@H](C)C(=O)N[C@H](CCCNC(=N)N)C(=O)NCC(=O)N[C@H](Cc1ccc(O)cc1)C(=O)NCC(=O)N[C@H](Cc1ccccc1)C(=O)N[C@H](CCCNC(=N)N)C(=O)O` [D-CTL] (H-[dR][dS][dM][dR][dL][dS][dF][dR][dA][dR]G[dY]G[dF][dR]-OH; N-terminus and C-terminus assumed), the MIC in the series with Escherichia coli was determined as 8 µg/mL (≈ 4.3 µM); in [2], 8.4 µg/mL; with Fusobacterium nucleatum it was 22.4 µg/mL; in the series with Prevotella intermedia, 10 µg/mL; with Parvimonas micra (24 hours incubation) it was 23 µg/mL; in series [1] (Staphylococcus aureus (MSSA), 24 hours incubation) it was 24 µg/mL. Further, in series [4] (all bacterial supernatants tested, 37° C.), the “degradation in bacterial supernatants” value was “not degraded”. The “MIC on E. faecalis” value against Enterococcus faecalis turned out to be 156 µg/mL (≈ 83.9 µM). In addition, the “stability in a buffered solution of Ca(OH)2” value in series [7] is recorded as “stable”. Also, the “degradation in the supernatant of E. faecalis” value in series [8] was “not degraded”. In addition, in series [5], the “stability in the supernatant of Candida albicans” value is given as “remains stable”. In series [6], the stability in saliva entry was “stable”.

For the compound `C[C@@H](c1ncncc1F)[C@](O)(Cn1cncn1)c1ccc(F)cc1F` [VCZ, voriconazole], in the series on Candida albicans (Candida albicans, 24 h, modified Gompertz model, read-out: minimal fungicidal concentration (MFC)), the MFC came out at 0.07 µg/mL. Also, the FIC in the series on Candida albicans (combination D-CTL/VCZ on Candida albicans) is reported as 0.25.

As for `CN[C@H](CC(C)C)C(=O)N[C@H]1C(=O)N[C@@H](CC(N)=O)C(=O)N[C@H]2C(=O)N[C@H]3C(=O)N[C@H](C(=O)N[C@H](C(=O)O)c4cc(O)cc(O)c4-c4cc3ccc4O)[C@H](O)c3ccc(c(Cl)c3)Oc3cc2cc(c3O[C@@H]2O[C@H](CO)[C@@H](O)[C@H](O)[C@H]2O[C@H]2C[C@](C)(N)[C@H](O)[C@H](C)O2)Oc2ccc(cc2Cl)[C@H]1O` [Vancomycin], the MIC in series [3] (Staphylococcus aureus, MRSA) stood at 0.8 µg/mL.

As for RSMRLSFRARGYGFRGPGLQL [CAT], the “bacterial growth inhibition of E. faecalis” value in the series with Enterococcus faecalis was “no antimicrobial activity”.
